Results as given in ChEMBL document CHEMBL3885881, “DrugMatrix”.

Species: Rattus norvegicus
Assay: DrugMatrix - Regimen: Daily Repeat
Assay type: toxicity, organism-based, Sprague-Dawley
Set-up: regimen Daily Repeat, gender Male, age 6-8 weeks
Details: in vivo, po, route oral GAVAGE, vehicle .5 % CMC; for ABSOLUTE BASOPHIL / ABSOLUTE EOSINOPHIL / ABSOLUTE LYMPHOCYTE / ABSOLUTE MONOCYTE / ABSOLUTE SEGMENTED NEUTROPHIL / BASOPHIL / EOSINOPHIL / ERYTHROCYTE COUNT / HEMATOCRIT / HEMOGLOBIN / LEUKOCYTE COUNT / LYMPHOCYTE / MEAN CORPUSCULAR HEMOGLOBIN / MEAN CORPUSCULAR HEMOGLOBIN CONCENTRATION / MONOCYTE / NEUTROPHIL / NUCLEATED RED BLOOD CELLS / PLATELET COUNT: tissue Blood; for ALANINE AMINOTRANSFERASE / ALBUMIN / ALKALINE PHOSPHATASE / ASPARTATE AMINOTRANSFERASE / BLOOD UREA NITROGEN / CARBON DIOXIDE / CHLORIDE / CHOLESTEROL / CREATINE PHOSPHOKINASE / CREATININE / GLUCOSE / LACTATE DEHYDROGENASE / LIPASE / PHOSPHORUS / POTASSIUM / SODIUM / TOTAL BILIRUBIN / TOTAL PROTEIN / URIC ACID: tissue Plasma
[1] = 0 mg/kg, 72 h, dose level Control, time 3 day
[2] = 0 mg/kg, 120 h, dose level Control, time 5 day
[3] = 3 mg/kg, 72 h, dose level Low, time 3 day

SMILES: COc1cc2nc(N3CCN(C(=O)c4ccco4)CC3)nc(N)c2cc1OC [PRAZOSIN]
- ABSOLUTE BASOPHIL [1]: 0 CELLS/uL
- ABSOLUTE EOSINOPHIL [1]: 171.33 CELLS/uL
- ABSOLUTE LYMPHOCYTE [1]: 13776.5 CELLS/uL
- ABSOLUTE MONOCYTE [1]: 180.83 CELLS/uL
- ABSOLUTE SEGMENTED NEUTROPHIL [1]: 1121.33 CELLS/uL
- BASOPHIL [1]: 0%
- EOSINOPHIL [1]: 1%
- ERYTHROCYTE COUNT [1]: 5.56 x10E6/uL
- HEMATOCRIT [1]: 34.75%
- HEMOGLOBIN [1]: 13.68 G/DL
- LEUKOCYTE COUNT [1]: 15.25 x10E3/uL
- LYMPHOCYTE [1]: 90.17%
- MEAN CORPUSCULAR HEMOGLOBIN [1]: 24.6 pg
- MEAN CORPUSCULAR HEMOGLOBIN CONCENTRATION [1]: 39.4 G/DL
- MONOCYTE [1]: 1.17%
- NEUTROPHIL [1]: 7.67%
- NUCLEATED RED BLOOD CELLS [1]: 0 /100WBC
- PLATELET COUNT [1]: 1342 x10E3/uL
- ALANINE AMINOTRANSFERASE [1]: 49.67 u/L
- ALBUMIN [1]: 4.15 G/DL
- ALKALINE PHOSPHATASE [1]: 346.83 u/L
- ASPARTATE AMINOTRANSFERASE [1]: 108.17 u/L
- BLOOD UREA NITROGEN [1]: 17.33 mg/dL
- CARBON DIOXIDE [1]: 25 mmol/L
- CHLORIDE [1]: 100.83 MEQ/L
- CHOLESTEROL [1]: 66.83 mg/dL
- CREATINE PHOSPHOKINASE [1]: 788 u/L
- CREATININE [1]: 0.18 mg/dL
- GLUCOSE [1]: 151.67 mg/dL
- LACTATE DEHYDROGENASE [1]: 982.5 u/L
- LIPASE [1]: 10.33 u/L
- PHOSPHORUS [1]: 11.23 mg/dL
- POTASSIUM [1]: 6.37 MEQ/L
- SODIUM [1]: 141.02 MEQ/L
- TOTAL BILIRUBIN [1]: 0.18 mg/dL
- TOTAL PROTEIN [1]: 5.9 G/DL
- URIC ACID [1]: 1.8 mg/dL
- ABSOLUTE BASOPHIL [2]: 0 CELLS/uL
- ABSOLUTE EOSINOPHIL [2]: 69 CELLS/uL
- ABSOLUTE LYMPHOCYTE [2]: 13632.83 CELLS/uL
- ABSOLUTE MONOCYTE [2]: 139.83 CELLS/uL
- ABSOLUTE SEGMENTED NEUTROPHIL [2]: 1225 CELLS/uL
- BASOPHIL [2]: 0%
- EOSINOPHIL [2]: 0.33%
- ERYTHROCYTE COUNT [2]: 5.52 x10E6/uL
- HEMATOCRIT [2]: 33.98%
- HEMOGLOBIN [2]: 13.22 G/DL
- LEUKOCYTE COUNT [2]: 15.07 x10E3/uL
- LYMPHOCYTE [2]: 90.83%
- MEAN CORPUSCULAR HEMOGLOBIN [2]: 23.95 pg
- MEAN CORPUSCULAR HEMOGLOBIN CONCENTRATION [2]: 38.9 G/DL
- MONOCYTE [2]: 0.83%
- NEUTROPHIL [2]: 8%
- NUCLEATED RED BLOOD CELLS [2]: 0 /100WBC
- PLATELET COUNT [2]: 1196 x10E3/uL
- ALANINE AMINOTRANSFERASE [2]: 49.17 u/L
- ALBUMIN [2]: 4.2 G/DL
- ALKALINE PHOSPHATASE [2]: 352.33 u/L
- ASPARTATE AMINOTRANSFERASE [2]: 89.67 u/L
- BLOOD UREA NITROGEN [2]: 18 mg/dL
- CARBON DIOXIDE [2]: 27.67 mmol/L
- CHLORIDE [2]: 101 MEQ/L
- CHOLESTEROL [2]: 72.83 mg/dL
- CREATINE PHOSPHOKINASE [2]: 417.5 u/L
- CREATININE [2]: 0.18 mg/dL
- GLUCOSE [2]: 150.5 mg/dL
- LACTATE DEHYDROGENASE [2]: 517.33 u/L
- LIPASE [2]: 9 u/L
- PHOSPHORUS [2]: 11.87 mg/dL
- POTASSIUM [2]: 6.57 MEQ/L
- SODIUM [2]: 143.62 MEQ/L
- TOTAL BILIRUBIN [2]: 0.2 mg/dL
- TOTAL PROTEIN [2]: 6.08 G/DL
- URIC ACID [2]: 1.45 mg/dL
- ABSOLUTE BASOPHIL [3]: 0 CELLS/uL
- ABSOLUTE EOSINOPHIL [3]: 118.67 CELLS/uL
- ABSOLUTE LYMPHOCYTE [3]: 13015.33 CELLS/uL
- ABSOLUTE MONOCYTE [3]: 208 CELLS/uL
- ABSOLUTE SEGMENTED NEUTROPHIL [3]: 1224.67 CELLS/uL
- BASOPHIL [3]: 0%
- EOSINOPHIL [3]: 0.67%
- ERYTHROCYTE COUNT [3]: 5.43 x10E6/uL
- HEMATOCRIT [3]: 33.53%
- HEMOGLOBIN [3]: 13.07 G/DL
- LEUKOCYTE COUNT [3]: 14.57 x10E3/uL
- LYMPHOCYTE [3]: 89.67%
- MEAN CORPUSCULAR HEMOGLOBIN [3]: 24.1 pg
- MEAN CORPUSCULAR HEMOGLOBIN CONCENTRATION [3]: 38.97 G/DL
- MONOCYTE [3]: 1.33%
- NEUTROPHIL [3]: 8.33%
- NUCLEATED RED BLOOD CELLS [3]: 0 /100WBC
- PLATELET COUNT [3]: 1384.67 x10E3/uL
- ALANINE AMINOTRANSFERASE [3]: 59.67 u/L
- ALBUMIN [3]: 3.97 G/DL
- ALKALINE PHOSPHATASE [3]: 505 u/L
- ASPARTATE AMINOTRANSFERASE [3]: 74.67 u/L
- BLOOD UREA NITROGEN [3]: 13.33 mg/dL
- CARBON DIOXIDE [3]: 24.33 mmol/L
- CHLORIDE [3]: 102 MEQ/L
- CHOLESTEROL [3]: 70 mg/dL
- CREATINE PHOSPHOKINASE [3]: 271 u/L
- CREATININE [3]: 0.22 mg/dL
- GLUCOSE [3]: 128.67 mg/dL
- LACTATE DEHYDROGENASE [3]: 254.33 u/L
- LIPASE [3]: 10.67 u/L
- PHOSPHORUS [3]: 12.33 mg/dL
- POTASSIUM [3]: 6.67 MEQ/L
- SODIUM [3]: 142.25 MEQ/L
- TOTAL BILIRUBIN [3]: 0.2 mg/dL
- TOTAL PROTEIN [3]: 5.63 G/DL
- URIC ACID [3]: 1.43 mg/dL
